Data: ChEMBL document CHEMBL1201862, “PubChem BioAssay data set” (2004)
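Briefly, cells in 96-well plates were exposed to five compound concentrations for 48 h, and endpoints were estimated by linear interpolation. GI50: concentration for 50% inhibition of growth.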 Activity calls are given as the source filed them. Cut-off read from the data, not from the text of the source: active = GI50 up to about 1.1 µM and inactive = higher.

Legend:
Test in all cases: growth of human tumour cells (NCI), 48 h
[1] = test system: LXFL 529
[2] = test system: NCI-H460
[3] = test system: EKVX
[4] = test system: U-251
[5] = test system: SNB-19
[6] = test system: DMS-114
[7] = test system: IGROV-1
[8] = test system: UACC-257
[9] = test system: Malme-3M
[10] = test system: LOX IMVI
[11] = test system: TK-10
[12] = test system: NCI-H226
[13] = test system: HOP-92
[14] = test system: UACC-62
[15] = test system: SN12C
[16] = test system: HCT-15
[17] = test system: HT-29
[18] = test system: SK-MEL-28
[19] = test system: 786-0
[20] = test system: M14
[21] = test system: SNB-78
[22] = test system: SW-620
[23] = test system: OVCAR-8
[24] = test system: COLO 205
[25] = test system: CCRF-CEM
[26] = test system: KM-20L2
[27] = test system: A549
[28] = test system: RPMI-8226
[29] = test system: M19-MEL
[30] = test system: DLD-1
[31] = test system: OVCAR-4
[32] = test system: HCC 2998
[33] = test system: ACHN
[34] = test system: SK-MEL-2
[35] = test system: SK-OV-3
[36] = test system: HCT-116
[37] = test system: NCI-H23
[38] = test system: HL-60
[39] = test system: SR
[40] = test system: SF-268
[41] = test system: MOLT-4
[42] = test system: RXF 393
[43] = test system: OVCAR-3
[44] = test system: KM12
[45] = test system: SF-539
[46] = test system: UO-31
[47] = test system: HOP-62
[48] = test system: DMS-273
[49] = test system: K562
[50] = test system: NCI-H522
[51] = test system: HOP-18
[52] = test system: OVCAR-5
[53] = test system: A498
[54] = test system: SF-295
[55] = test system: CAKI-1
[56] = test system: XF498
[57] = test system: SK-MEL-5

CN1N=C2c3ccccc3CC[C@H]2C1c1ccccc1 (stereo not given in full)
GI50 [1]: 15.4 µM (inactive)
GI50 [2]: 28.9 µM (inactive)
GI50 [3]: 49.3 µM (inactive)
GI50 [4]: 53.5 µM (inactive)
GI50 [5]: 69.2 µM (inactive)
GI50 [6]: 22.5 µM (inactive)
GI50 [7]: 85.5 µM (inactive)
GI50 [8]: 22.3 µM (inactive)
GI50 [9]: 25.5 µM (inactive)
GI50 [10]: 47.1 µM (inactive)
GI50 [11]: > 100 µM (inactive)
GI50 [12]: 27.9 µM (inactive)
GI50 [13]: 5.25 µM (inactive)
GI50 [14]: 32.3 µM (inactive)
GI50 [15]: 42.1 µM (inactive)
GI50 [16]: 27 µM
GI50 [17]: 22.9 µM (inactive)
GI50 [18]: > 100 µM (inactive)
GI50 [19]: 63.5 µM (inactive)
GI50 [20]: 56.5 µM (inactive)
GI50 [21]: 83.9 µM (inactive)
GI50 [22]: 78.2 µM (inactive)
GI50 [23]: 41.1 µM (inactive)
GI50 [24]: 35.7 µM (inactive)
GI50 [25]: > 100 µM (inactive)
GI50 [26]: 36.9 µM (inactive)
GI50 [27]: 35.6 µM (inactive)
GI50 [28]: 28.6 µM (inactive)
GI50 [29]: 15.7 µM (inactive)
GI50 [30]: 41.8 µM (inactive)
GI50 [31]: 23.1 µM (inactive)
GI50 [32]: 85.7 µM (inactive)
GI50 [33]: 44.3 µM (inactive)
GI50 [34]: 24.5 µM (inactive)
GI50 [35]: 2.56 µM (inactive)
GI50 [36]: 18 µM (inactive)
GI50 [37]: 16.1 µM (inactive)
GI50 [38]: 29.6 µM (inactive)
GI50 [39]: > 100 µM (inactive)
GI50 [40]: > 100 µM (inactive)
GI50 [41]: > 100 µM (inactive)
GI50 [42]: 17 µM (inactive)
GI50 [43]: 41.8 µM (inactive)
GI50 [44]: 36.9 µM (inactive)
GI50 [45]: 86.5 µM (inactive)
GI50 [46]: 19.4 µM (inactive)
GI50 [47]: 47.9 µM (inactive)
GI50 [48]: 26.6 µM (inactive)
GI50 [49]: > 100 µM (inactive)
GI50 [50]: 17.6 µM (inactive)
GI50 [51]: > 100 µM (inactive)
GI50 [52]: > 100 µM (inactive)
GI50 [53]: 72.1 µM (inactive)
GI50 [54]: 35.3 µM (inactive)

COC1OC(CBr)C(OC(=O)c2ccccc2)C(O)C1Br (stereo not given)
GI50 [1]: > 100 µM (inactive)
GI50 [2]: > 100 µM (inactive)
GI50 [4]: > 100 µM (inactive)
GI50 [5]: > 100 µM (inactive)
GI50 [7]: > 10 µM (inactive)
GI50 [8]: > 10 µM (inactive)
GI50 [9]: > 100 µM (inactive)
GI50 [10]: > 100 µM (inactive)
GI50 [11]: > 100 µM (inactive)
GI50 [12]: > 100 µM (inactive)
GI50 [13]: > 100 µM (inactive)
GI50 [14]: > 100 µM (inactive)
GI50 [15]: > 100 µM (inactive)
GI50 [16]: > 100 µM
GI50 [17]: > 100 µM (inactive)
GI50 [18]: > 100 µM (inactive)
GI50 [19]: > 100 µM (inactive)
GI50 [20]: > 100 µM (inactive)
GI50 [21]: > 100 µM (inactive)
GI50 [22]: > 100 µM (inactive)
GI50 [23]: > 100 µM (inactive)
GI50 [24]: > 100 µM (inactive)
GI50 [25]: > 100 µM (inactive)
GI50 [26]: > 100 µM (inactive)
GI50 [27]: > 100 µM (inactive)
GI50 [55]: > 100 µM (inactive)
GI50 [28]: > 100 µM (inactive)
GI50 [29]: > 100 µM (inactive)
GI50 [30]: > 100 µM (inactive)
GI50 [31]: > 100 µM (inactive)
GI50 [32]: > 100 µM (inactive)
GI50 [36]: > 100 µM (inactive)
GI50 [37]: > 100 µM (inactive)
GI50 [38]: > 100 µM (inactive)
GI50 [39]: > 100 µM (inactive)
GI50 [40]: > 100 µM (inactive)
GI50 [41]: > 100 µM (inactive)
GI50 [42]: > 100 µM (inactive)
GI50 [43]: > 100 µM (inactive)
GI50 [44]: > 100 µM (inactive)
GI50 [45]: > 100 µM (inactive)
GI50 [47]: > 100 µM (inactive)
GI50 [48]: > 100 µM (inactive)
GI50 [56]: > 10 µM (inactive)
GI50 [49]: > 100 µM (inactive)
GI50 [57]: > 100 µM (inactive)
GI50 [50]: > 100 µM (inactive)
GI50 [51]: > 100 µM (inactive)
GI50 [52]: > 100 µM (inactive)
GI50 [53]: > 100 µM (inactive)
GI50 [54]: > 100 µM (inactive)
